{"source": "patent US8512957B2", "about": "“Toxicity typing using liver stem cells” (Vistagen Therapeutics, Inc., priority 2000, dated 2013)", "origin": "cited, not measured here", "key": {"[1]": {"conditions": "known toxicity class, printed in first toxicity column (Dev = developmental)"}, "liver": {"tested_on": "liver", "conditions": "known toxicity of the drug, stated in words"}}, "data": [{"smiles": "CCOC(=O)C(C)(C)Oc1ccc(Cl)cc1", "note": "[clofibrate]", "values": [{"measurement": "TOXICITIES EV", "setting": "[1]", "value": "tc"}]}, {"smiles": "CCC(=O)O[C@H]1[C@H](O[C@@H]2[C@@H](C)[C@H](O[C@H]3C[C@@](C)(OC)[C@@H](O)[C@H](C)O3)[C@@H](C)C(=O)O[C@H](CC)[C@@](C)(O)[C@H](O)[C@@H](C)C(=O)[C@H](C)C[C@@]2(C)O)O[C@H](C)C[C@@H]1N(C)C", "note": "[erythromycin estolate]", "values": [{"measurement": "liver toxicity", "setting": "liver", "value": "known liver toxicity"}]}, {"smiles": "CN(CCOc1ccc(CC2SC(=O)NC2=O)cc1)c1ccccn1", "note": "(stereo not shown) [rosiglitazone]", "values": [{"measurement": "TOXICITIES EV", "setting": "[1]", "value": "tc"}]}, {"smiles": "Cc1c(C)c2c(c(C)c1O)CCC(C)(COc1ccc(CC3SC(=O)NC3=O)cc1)O2", "note": "(stereo not shown) [troglitazone]", "values": [{"measurement": "liver toxicity", "setting": "liver", "value": "rare but severe liver toxicity"}]}]}
